Data taken from patent publication US20250032524A1, “BROAD SPECTRUM AMINOGLYCOSIDES AND USES THEREOF” (REVAGENIX, INC., priority 2022, published 2025).
Like-named read-outs stand apart in the source and are kept apart here.

Key:
Assay type in all cases: cell-based
[1] = tested on: S. enterica; assay: MIC broth microdilution (CLSI); details: Salmonella enterica, read-out: Activity (MIC)
Method in brief: (§1)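 Organisms from overnight agar colonies were adjusted to 0.5 McFarland and tested in cation-adjusted Mueller-Hinton broth at a final 5×10^5 CFU/mL against 2-fold serial compound dilutions. Plates were incubated in ambient air at 35° C. for 18-24 hours; MIC was the lowest concentration preventing visible growth (OD 600 nm<0.05).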

[2] = tested on: E. cloacae; assay: MIC broth microdilution (CLSI); details: Enterobacter cloacae; strain AECL1089, MDR Clinical isolate (CDC CRE panel), CDC AR Bank 0154
Method in brief: as §1

[3] = tested on: A. baumannii; assay: MIC broth microdilution (CLSI); details: Acinetobacter baumannii
Method in brief: as §1

[4] = tested on: C. freundii; assay: MIC broth microdilution (CLSI); details: Citrobacter freundii, read-out: Activity (MIC)
Method in brief: as §1

[5] = tested on: S. aureus; assay: MIC broth microdilution (CLSI); details: for MIC: Staphylococcus aureus
Method in brief: as §1

[6] = tested on: K. pneumoniae; assay: MIC broth microdilution (CLSI)
Method in brief: as §1

[7] = tested on: P. aeruginosa; assay: MIC broth microdilution (CLSI); details: Pseudomonas aeruginosa
Method in brief: as §1

[8] = tested on: E. coli; assay: MIC broth microdilution (CLSI); details: Escherichia coli
Method in brief: as §1

[9] = tested on: K. aerogenes; assay: MIC broth microdilution (CLSI); details: Klebsiella aerogenes; strain AEAE1042, MDR Clinical isolate (CDC CRE panel), CDC AR Bank 0161
Method in brief: as §1

[10] = tested on: P. mirabilis; assay: MIC broth microdilution (CLSI); details: Proteus mirabilis; strain APMI1048, MDR Clinical isolate (CDC CRE panel), CDC AR Bank 0159
Method in brief: as §1

[11] = tested on: A. baumannii-calcoaceticus; assay: Antibacterial surveillance of clinical isolates (MIC50/90); details: 100 isolates
Experimental: (§2) Minimum inhibitory concentrations for representative example compounds herein were determined by a broth microdilution method in accordance with the Clinical and Laboratory Standards Institute (CLSI) guidelines. In brief, organism suspensions were adjusted to a 0.5 McFarland standard to yield a final inoculum between 3×10^5 and 7×10^5 colony-forming units (CFU)/mL. The inoculum was prepared by suspension of a colony from an agar plate that was prepared the previous day. Compound dilutions and inoculum were prepared in sterile, cation adjusted Mueller-Hinton Broth (Beckton Dickinson).
(§3) Bacteria were suspended in sterile saline and added to each assay plate to obtain a final concentration of 5×10^5 CFU/mL. An inoculum volume of 100 μL was added to wells containing 100 μL of broth with 2-fold serial dilutions of the test compound. All inoculated microdilution trays were incubated in ambient air at 35° C. for 18-24 hours. Following incubation, the lowest concentration of the compound that prevented visible growth (OD 600 nm<0.05) is recorded was the MIC. […] Performance of the assay was monitored by the use of laboratory quality-control strains and a standard compound with a defined MIC spectrum (neomycin), in accordance with CLSI guidelines.
(§4) Several compounds of the disclosure (Compound 1, 2, and 3) were further evaluated against several hundred bacterial isolates (isolated in the United States and Europe, 1:1) selected from the SENTRY Antimicrobial Surveillance Program (JMI Laboratories, North Liberty, Iowa). The set of clinical isolates included 300 randomly selected Enterobacterales, 103 randomly selected P. aeruginosa, 100 randomly selected A. baumannii-calcoaceticus, 20 randomly selected Methicillin-sensitive S. aureus (MSSA), and 30 randomly selected Methicillin-resistant S. aureus (MRSA). In addition, 101 Enterobacterales and 50 P. aeruginosa isolates with genetically defined mechanisms of aminoglycoside resistance were included. The MIC values at which ≥50% (MIC50) and ≥90% (MIC90) of isolates within a given set are inhibited were determined for each compound against each set of organisms.

[12] = tested on: AG-resistant Enterobacterales; assay: as above
Experimental: as §2, §3, §4

[13] = tested on: Methicillin-sensitive S. aureus (MSSA); assay: as above; details: Staphylococcus aureus, MSSA, 20 isolates
Experimental: as §2, §3, §4

[14] = tested on: P. aeruginosa; assay: as above; details: Pseudomonas aeruginosa, 103 isolates
Experimental: as §2, §3, §4

[15] = tested on: Methicillin-resistant S. aureus (MRSA); assay: as above; details: Staphylococcus aureus, MRSA, 30 isolates
Experimental: as §2, §3, §4

[16] = tested on: all sets of organisms tested (SENTRY clinical isolates); assay: Antibacterial surveillance, overall statement; details: all sets of organisms tested (Table 3); read-out: MIC50,90 values
Experimental: as §2, §3
as §4, with “The MIC values at which ≥50% (MIC50) and ≥90% (MIC90) of isolates within a given set are inhibited were determined for each compound against each set of organisms.” left out

**Q.** What does the source list for NCC[C@H](O)C(=O)N[C@@H]1[C@@H](O)[C@H](N)[C@@H](O[C@H]2O[C@H](CN)CC[C@H]2N)[C@H](O[C@@H]2O[C@H](CO)[C@@H](O[C@H]3O[C@@H](CN)[C@@H](O)[C@H](O)[C@H]3N)[C@H]2O)[C@H]1O [Compound 2, (S)-4-amino-N-((1R,2S,3S,4R,5R,6S)-3-amino-5-(((2S,3R,4S,5R)-4-(((2R,3R,4R,5S,6S)-3-amino-6-(aminomethyl)-4,5-dihydroxytetrahydro-2H-pyran-2-yl)oxy)-3-hydroxy-5-(hydroxymethyl)tetrahydrofuran-2-yl)oxy)-4-(((2R,3R,6S)-3-amino-6-(aminomethyl)tetrahydro-2H-pyran-2-yl)oxy)-2,6-dihydroxycyclohexyl)-2-hydroxybutanamide]?
**A.** MIC [1]: < 16 µg/mL; MIC [2]: < 16 µg/mL; MIC ([3]; read-out: Activity (MIC), strain NABA0007, ΔadeJK efflux): < 16 µg/mL; MIC ([3]; read-out: Activity (MIC), strain NABA1427, MDR Clinical isolate): < 16 µg/mL; MIC ([3]; read-out: Activity (MIC), strain NABA1433, MDR Clinical isolate): < 16 µg/mL; MIC ([3]; read-out: Activity (MIC), strain NABA1434, MDR Clinical isolate): < 16 µg/mL; MIC ([3]; read-out: Activity (MIC), strain NABA1436, MDR Clinical isolate): < 16 µg/mL; MIC ([3]; read-out: Activity (MIC), strain NABA1437, MDR Clinical isolate): < 16 µg/mL; MIC ([3]; read-out: Activity (MIC), strain NABA1438, MDR Clinical isolate): < 16 µg/mL; MIC ([3]; read-out: Activity (MIC), strain NABA1439, MDR Clinical isolate): < 16 µg/mL; MIC ([3]; read-out: Activity (MIC), strain NABA1448, MDR Clinical isolate): < 16 µg/mL; MIC ([3]; read-out: Activity (MIC), strain NABA1449, MDR Clinical isolate): < 16 µg/mL; MIC ([3]; read-out: Activity (MIC), strain NABA1450, MDR Clinical isolate): < 16 µg/mL; MIC ([3]; strain NABA0006, WT parent, read-out: Activity (MIC)): < 16 µg/mL; MIC ([3]; strain NABA0020, AME negative strain, read-out: Activity (MIC)): < 16 µg/mL; MIC [4]: < 16 µg/mL; MIC ([5]; ATCC29213, strain NSAU001, wild-type, QC, ATCC 29213): < 16 µg/mL; MIC ([5]; strain NSAU1004, MDR Clinical isolate): < 16 µg/mL; Activity (MIC) ([5]; strain NSAU1015, MDR Clinical isolate): + (MIC threshold for positive activity (+) is ≤16 μg/mL); Activity (MIC) ([5]; strain NSAU1023, MDR Clinical isolate): + (MIC threshold for positive activity (+) is ≤16 μg/mL); Activity (MIC) ([5]; strain NSAU1063, MDR Clinical isolate): + (MIC threshold for positive activity (+) is ≤16 μg/mL); MIC ([6]; Klebsiella pneumoniae, strain AKPN1246, MDR Clinical isolate (CDC CRE panel), CDC AR Bank 0139): < 16 µg/mL; Activity (MIC) ([6]; strain AKPN1250, MDR Clinical isolate (CDC CRE panel), CDC AR Bank 0143): + (MIC threshold for positive activity (+) is ≤16 μg/mL); Activity (MIC) ([6]; strain AKPN1253, MDR Clinical isolate (CDC CRE panel), CDC AR Bank 0148): + (MIC threshold for positive activity (+) is ≤16 μg/mL); Activity (MIC) ([6]; strain AKPN1255, MDR Clinical isolate (CDC CRE panel), CDC AR Bank 0153): + (MIC threshold for positive activity (+) is ≤16 μg/mL); MIC ([7]; read-out: Activity (MIC), strain NPAE0006, Efflux KO, Aph(3')-IIb): < 16 µg/mL; MIC ([7]; read-out: Activity (MIC), strain NPAE0010, MexXY over-expressed, Aph(3')-IIb): < 16 µg/mL; MIC ([7]; read-out: Activity (MIC), strain NPAE1288, MDR Clinical isolate): < 16 µg/mL; MIC ([7]; read-out: Activity (MIC), strain NPAE1293, MDR Clinical isolate): < 16 µg/mL; MIC ([7]; read-out: Activity (MIC), strain NPAE1299, MDR Clinical isolate): < 16 µg/mL; MIC ([7]; read-out: Activity (MIC), strain NPAE1302, MDR Clinical isolate): < 16 µg/mL; MIC ([7]; read-out: Activity (MIC), strain NPAE1303, MDR Clinical isolate): < 16 µg/mL; MIC ([7]; read-out: Activity (MIC), strain NPAE1308, MDR Clinical isolate): < 16 µg/mL; MIC ([7]; read-out: Activity (MIC), strain NPAE1310, MDR Clinical isolate): < 16 µg/mL; MIC ([7]; read-out: Activity (MIC), strain NPAE1313, MDR Clinical isolate): < 16 µg/mL; MIC ([7]; read-out: Activity (MIC), strain NPAE1316, MDR Clinical isolate): < 16 µg/mL; MIC ([7]; read-out: Activity (MIC), strain NPAE1323, MDR Clinical isolate): < 16 µg/mL; MIC ([7]; strain NPAE0001, WT Aph(3')-IIb, QC, read-out: Activity (MIC)): < 16 µg/mL; MIC ([7]; strain NPAE0002, WT Aph(3')-IIb, read-out: Activity (MIC)): < 16 µg/mL; MIC ([7]; strain NPAE0359, aph(3')-IIb KO (tetR), read-out: Activity (MIC)): < 16 µg/mL; MIC ([8]; read-out: Activity (MIC), strain AECO1225, MDR Clinical isolate (CDC CRE panel), CDC AR Bank 0118): < 16 µg/mL; MIC ([8]; read-out: Activity (MIC), strain AECO1226, MDR Clinical isolate (CDC CRE panel), CDC AR Bank 0119): < 16 µg/mL; MIC ([8]; read-out: Activity (MIC), strain AECO1227, MDR Clinical isolate (CDC CRE panel), CDC AR Bank 0128): < 16 µg/mL; MIC ([8]; read-out: Activity (MIC), strain NECO0003, ΔtolC): < 16 µg/mL; MIC ([8]; read-out: Activity (MIC), strain NECO0245, ArmA): < 16 µg/mL; MIC ([8]; strain NECO0001, WT QC, read-out: Activity (MIC)): < 16 µg/mL; MIC ([8]; strain NECO0002, WT, read-out: Activity (MIC)): < 16 µg/mL; MIC ([8]; strain NECO0243, empty vector, read-out: Activity (MIC)): < 16 µg/mL; MIC ([8]; strain NECO0244, AAC(6')-Ib, read-out: Activity (MIC)): < 16 µg/mL; MIC ([8]; strain NECO0289, APH(3')-Ia, read-out: Activity (MIC)): < 16 µg/mL; MIC ([8]; strain NECO0302, AAC(3)-IIa, read-out: Activity (MIC)): < 16 µg/mL; MIC ([8]; strain NECO0350, AAC(2')-I, read-out: Activity (MIC)): < 16 µg/mL; MIC ([8]; strain NECO0359, ANT(4')-Ia, read-out: Activity (MIC)): < 16 µg/mL; MIC [9]: < 16 µg/mL; MIC [10]: < 16 µg/mL; MIC50 ([11]; read-out: MIC50): < 16 µg/mL; MIC90 ([11]; read-out: MIC90): < 16 µg/mL; MIC50 [12]: < 16 µg/mL; MIC90 [12]: < 16 µg/mL; MIC50 ([13]; read-out: MIC50): < 16 µg/mL; MIC90 ([13]; read-out: MIC90): < 16 µg/mL; MIC50 ([14]; read-out: MIC50): < 16 µg/mL; MIC90 ([14]; read-out: MIC90): < 16 µg/mL; MIC50 ([15]; read-out: MIC50): < 16 µg/mL; MIC90 ([15]; read-out: MIC90): < 16 µg/mL; MIC50 [16]: ≤ 16 µg/mL
